According to patent publication US8623392B2, “Allergen inactivating agent” (priority 2007, dated 2014):
Entries after “also recorded” stand apart in the source; their conditions may differ.

What was measured:
freeze-dried Cry j1 = biological target: T1, freeze-dried Cry j1 (Cryptomeria japonica, UniProt P18632); assay: ELISA of freeze-dried Cry j1 after exposure to chlorine dioxide gas in 100 L-Tedlar bag; assay type: biochemical, Japanese cedar; details: 24 hours
T1 construct: purchased Hayashibara Biochemical Labs., Inc
Method: (§1) The purified Cry j1 which had been freeze-dried was reacted with chlorine dioxide gas having an average concentration of 0.08 ppm for 24 hours, and measurement was made using ELISA. As a result, 0.08 ppm of chlorine dioxide gas reduced the antigenicity of Cry j1, as compared with the case of air as a control. […] The details will be described below.
In order to examine effect of the chlorine dioxide gas on the freeze-dried Cry j1, […] of the purified Cry j1 adjusted with PBS to the concentration of 10 μg/ml was placed in a […], frozen at −30° C., and freeze-dried overnight using a suction desiccator.
The humidity was controlled using agar, and the generated chlorine dioxide solution was introduced using a syringe into a 100 L-Tedlar bag, so that the concentration therein becomes 0.1 ppm, and air inside the bag was agitated using a crisscross rotor wherein outer diameter of 60 mm×height of 17 mm. Likewise, a bag into which distilled water was introduced was used as a control. The bag was left in an environment of 24° C., and the chlorine dioxide gas concentration inside the bag was measured using a chlorine dioxide gas measuring instrument (Model 4330-SP, Interscan Corporation; measurement range 0 to 1,000 ppb), and when the value was below 0.1 ppm, the generated chlorine dioxide solution was further added to make adjustment. […]

freeze-dried Der fII = biological target: T2, freeze-dried Der fII (Dermatophagoides farinae, UniProt Q00855); assay: ELISA of freeze-dried Der fII after exposure to chlorine dioxide gas in 100 L-Tedlar bag; assay type: biochemical, mite; details: 24 hours
T2 sequence (Q00855 18-146): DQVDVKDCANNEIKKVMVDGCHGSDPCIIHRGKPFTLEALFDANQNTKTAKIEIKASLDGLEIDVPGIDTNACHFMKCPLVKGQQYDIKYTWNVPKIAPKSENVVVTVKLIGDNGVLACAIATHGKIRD
Method: as §1, with “Der fII” for “Cry j1”, “a” for “an average”, “0.1” for “0.08”, “Der fII,” for “Cry j1,”
In order to examine effect of the chlorine dioxide gas on the freeze-dried Der fII, 10 μl of the purified Der fII adjusted with PBS to the concentration of 10 μg/ml was placed in a 0.2-mL tube, frozen at −30° C., and freeze-dried overnight using a suction desiccator.
The humidity was controlled by a saturated salt method. Inside a Futon bag, a Tupperware containing salt or water therein was placed so as to obtain a target humidity, and next day, inside the bag, a 100 L-Tedlar bag containing the freeze-dried Der fII and a hygrometer was placed. A Tedlar bag into which chlorine dioxide was introduced was light-shielded with aluminum foil. […] The bag was left in an environment of 24° C., and the chlorine dioxide gas concentration inside bag was measured using a chlorine dioxide detector tube (No. 23M having a measurement range of 0.1 to 10 ppm, No. 23L having a measurement range of 0.025 to 1.2 ppm, GASTEC Corporation), and when the value was below 0.1 ppm, the generated chlorine dioxide gas was further added to make adjustment. […]

T1 sequence (P18632 22-374): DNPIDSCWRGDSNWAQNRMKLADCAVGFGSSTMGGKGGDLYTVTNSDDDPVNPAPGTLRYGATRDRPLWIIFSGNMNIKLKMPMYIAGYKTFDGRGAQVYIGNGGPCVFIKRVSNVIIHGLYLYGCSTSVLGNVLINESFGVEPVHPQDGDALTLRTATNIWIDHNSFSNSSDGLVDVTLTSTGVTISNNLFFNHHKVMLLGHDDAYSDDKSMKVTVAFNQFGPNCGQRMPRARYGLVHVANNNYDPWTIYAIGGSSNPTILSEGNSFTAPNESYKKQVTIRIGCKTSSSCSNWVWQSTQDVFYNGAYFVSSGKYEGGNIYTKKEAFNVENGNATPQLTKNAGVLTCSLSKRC

SMILES: [O][Cl+][O-] [chlorine dioxide gas, chlorine dioxide]
- antigenicity of freeze-dried Cry j1 at higher relative humidity (freeze-dried Cry j1; chlorine dioxide gas 0.1 ppm (average 0.08 ppm), humidity increased): further reduced; also recorded: reduced to a larger degree
- antigenicity of freeze-dried Cry j1 (freeze-dried Cry j1; chlorine dioxide gas 0.1 ppm set, 0.08 ppm (80 ppb) on average, 24° C., compared with air control): remarkably reduced
- antigenicity of freeze-dried Der fII (freeze-dried Der fII; chlorine dioxide gas 0.1 ppm (0.09 ppm on average), 24° C., compared with air control): remarkably reduced
- antigenicity of freeze-dried Der fII at higher relative humidity (freeze-dried Der fII; chlorine dioxide gas 0.1 ppm, humidity increased): reduced to a larger degree; also recorded: further reduced
